Read-outs that look alike come from different tables or passages of the source.
Tested on: Male Sprague-Dawley rats
Conditions: six-hour delay

Nc1c2c(nc3ccccc13)CCCC2 [Tacrine, tacrine]
retention (errors in retention session) (tacrine 3 mg/kg s.c. immediately after the sampling phase): not | retention (errors in retention session) (tacrine 10 mg/kg s.c. immediately after the sampling phase): significantly improved retention
